The subject of one assay is HBV rcDNA. Briefly: HepDE19 assay with bDNA quantitation of HBV rcDNA. The class given is cell-based, hepatitis B virus. As to conditions: HepDE19 assay, inhibition of formation of rcDNA; read-out: DE-19bDNA EC50. Summed up: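 HepDE19 cells (HepG2-derived, Tet-regulated HBV replication) were deprived of tetracycline and then exposed to compounds for 7 days at 37 °C in 0.5% DMSO, 8-point titration from 25 μM. rcDNA was quantified by bDNA and EC50/EC90 came from 4-parameter fits. CC50 was measured by CellTiter-Glo ATP content on replicate plates after 4 days.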
The EC50 is the concentration needed to bring the measured effect to its halfway point. With `CC(c1c[nH]c(=O)c2ccccc12)N(CCCC(=O)O)C(=O)Nc1ccc(F)c(Cl)c1` (single isomer, unassigned) [Compound 227, 4-(3-(3-Chloro-4-fluorophenyl)-1-(1-(1-oxo-1,2-dihydroisoquinolin-4-yl)ethyl)ureido)butanoic acid], the 50% effective concentration (EC50) is 4900 nM.

Regarding `CCN(C(=O)Nc1ccc(F)c(Cl)c1)C(c1c[nH]c(=O)c2ccccc12)C(F)(F)F` (single isomer, unassigned) [Compound 76, 3-(3-Chloro-4-fluorophenyl)-1-ethyl-1-(2,2,2-trifluoro-1-(1-oxo-1,2-dihydroisoquinolin-4-yl)ethyl)urea], the concentration for a half-maximal effect (EC50) came to 1400 nM. For `CC(c1c[nH]c(=O)c2ccccc12)N(CC1CCN(S(C)(=O)=O)CC1)C(=O)Nc1ccc(F)c(Cl)c1` (single isomer, unassigned) [Compound 203, 3-(3-Chloro-4-fluorophenyl)-1-((1-(methylsulfonyl)piperidin-4-yl)methyl)-1-(1-(1-oxo-1,2-dihydroisoquinolin-4-yl)ethyl)urea], the EC50 came to 10500 nM.

Take `CC(c1cnc(NCc2nc[nH]n2)c2ccccc12)N(C)C(=O)Nc1ccc(F)c(Cl)c1` (single isomer, unassigned) [Compound 247, 1-(1-(1-(((1H-1,2,4-Triazol-3-yl)methyl)amino)isoquinolin-4-yl)ethyl)-3-(3-chloro-4-fluorophenyl)-1-methylurea]: the EC50 is 390 nM. Same read-out and setting: the value for `CC(c1c[nH]c(=O)c2cc(F)ccc12)N(C)C(=O)Nc1ccc(F)c(Cl)c1` (single isomer, unassigned) [Compound 264, 3-(3-Chloro-4-fluorophenyl)-1-(1-(7-fluoro-1-oxo-1,2-dihydroisoquinolin-4-yl)ethyl)-1-methylurea] was 19 nM; that for `CC(c1c[nH]c(=O)c2ccccc12)N(CC1CCN(S(C)(=O)=O)CC1)C(=O)Nc1ccc(F)c(Cl)c1` (single isomer, unassigned) [Compound 204, 3-(3-Chloro-4-fluorophenyl)-1-((1-(methylsulfonyl)piperidin-4-yl)methyl)-1-(1-(1-oxo-1,2-dihydroisoquinolin-4-yl)ethyl)urea] was 60 nM; that for `Cc1[nH]c(=O)c2ccccc2c1C(C)N(C)C(=O)Nc1ccc(F)c(Cl)c1` (single isomer, unassigned) [Compound 223, 3-(3-Chloro-4-fluorophenyl)-1-methyl-1-(1-(3-methyl-1-oxo-1,2-dihydroisoquinolin-4-yl)ethyl)urea] was 27 nM.

The assay is the same for the next values; noted with them: HepDE19 assay, inhibition of formation of relaxed circular DNA (rcDNA), bDNA quantitation; read-out: DE-19bDNA EC50.
In the case of `CC(c1cnc(-n2ccnn2)c2ccccc12)N(C)C(=O)Nc1ccc(F)c(Cl)c1` (single isomer, unassigned) [Compound 425, 1-(1-(1-(1H-1,2,3-Triazol-1-yl)isoquinolin-4-yl)ethyl)-3-(3-chloro-4-fluorophenyl)-1-methylurea], the EC50 came out at 90 nM. Turning to `CC(c1c[nH]c(=O)c2c(F)c(F)ccc12)N(C)C(=O)Nc1cccc(F)c1F` (single isomer, unassigned) [Compound 459, 1-(1-(7,8-Difluoro-1-oxo-1,2-dihydroisoquinolin-4-yl)ethyl)-3-(2,3-difluorophenyl)-1-methylurea], the EC50 stood at 200 nM. As to `CC(c1cn(C)c(=O)c2c(F)c(F)ccc12)N(C)C(=O)Nc1ccc(F)c(Cl)c1` (single isomer, unassigned) [Compound 333, 3-(3-Chloro-4-fluorophenyl)-1-(1-(7,8-difluoro-2-methyl-1-oxo-1,2-dihydroisoquinolin-4-yl)ethyl)-1-methylurea], the EC50 is 13 nM. `CC(c1c[nH]c(=O)c2ccccc12)N(Cc1ccncc1)C(=O)Nc1ccc(F)c(Cl)c1` (single isomer, unassigned) [Compound 308, 3-(3-Chloro-4-fluorophenyl)-1-(1-(1-oxo-1,2-dihydroisoquinolin-4-yl)ethyl)-1-(pyridin-4-ylmethyl) urea]: the EC50 is 130 nM. As for `CC(c1c[nH]c(=O)c2ccccc12)N(Cc1ccncc1)C(=O)Nc1ccc(F)c(Cl)c1` (single isomer, unassigned) [Compound 309, 3-(3-Chloro-4-fluorophenyl)-1-(1-(1-oxo-1,2-dihydroisoquinolin-4-yl)ethyl)-1-(pyridin-4-ylmethyl) urea], the EC50 came to 11000 nM. Take `CC(c1c[nH]c(=O)c2cc(F)c(F)cc12)N(CCS(N)(=O)=O)C(=O)Nc1ccc(F)c(Cl)c1` (single isomer, unassigned) [Compound 386, 2-(3-(3-Chloro-4-fluorophenyl)-1-(1-(6,7-difluoro-1-oxo-1,2-dihydroisoquinolin-4-yl)ethyl)ureido) ethane-1-sulfonamide]: the EC50 stood at 11 nM. For `CC(c1c[nH]c(=O)c2cc(F)c(F)cc12)N(CCCO)C(=O)Nc1ccc(F)c(Cl)c1` (single isomer, unassigned) [Compound 290, 3-(3-Chloro-4-fluorophenyl)-1-(1-(6,7-difluoro-1-oxo-1,2-dihydroisoquinolin-4-yl)ethyl)-1-(3-hydroxypropyl)urea], the EC50 worked out at 2 nM.

Take `CC(c1c[nH]c(=O)c2c(F)cccc12)N(CCCO)C(=O)Nc1ccc(F)c(Cl)c1` (single isomer, unassigned) [Compound 366, 3-(3-Chloro-4-fluorophenyl)-1-(1-(8-fluoro-1-oxo-1,2-dihydroisoquinolin-4-yl)ethyl)-1-(3-hydroxypropyl)urea]: the EC50 is 11000 nM. Regarding `CC(c1c[nH]c(=O)c2cc(F)c(F)cc12)N(C)C(=O)Nc1cccc(F)c1F` (single isomer, unassigned) [Compound 430, 1-(1-(6,7-Difluoro-1-oxo-1,2-dihydroisoquinolin-4-yl)ethyl)-3-(2,3-difluorophenyl)-1-methylurea], the concentration giving a half-maximal response (EC50) turned out to be 12000 nM.

Still in this assay, the particulars now being: Hepatitis B virus, HepDE19, HepDE19 assay, inhibition of formation of rcDNA; read-out: DE-19bDNA EC50.
Take `Cc1cc(NC(=O)N(C)[C@H](C)c2c[nH]c(=O)c3ccccc23)ccc1F` [Compound 32, (R)-3-(4-Fluoro-3-methylphenyl)-1-methyl-1-(1-(1-oxo-1,2-dihydroisoquinolin-4-yl)ethyl)urea]: the EC50 came out at 30 nM. For `CNC(=O)CN(C(=O)Nc1ccc(F)c(Cl)c1)C(C)c1c[nH]c(=O)c2ccccc12` (stereo not shown) [Compound 116, 2-(3-(3-Chloro-4-fluorophenyl)-1-(1-(1-oxo-1,2-dihydroisoquinolin-4-yl)ethyl)ureido)-N-methylacetamide], the half-maximal effective concentration (EC50) was determined as 1000 nM. Take `CCN(Cc1cnc(OCCO)c2ccccc12)C(=O)Nc1ccc(F)c(Cl)c1` [Compound 29, 3-(3-Chloro-4-fluorophenyl)-1-ethyl-1-((1-(2-hydroxyethoxy)isoquinolin-4-yl)methyl)urea]: the EC50 was 4200 nM.

With `CCN(Cc1cnc(OC)c2ccccc12)C(=O)Nc1ccc(F)c(Cl)c1` [Compound 15, 3-(3-Chloro-4-fluorophenyl)-1-ethyl-1-((1-methoxyisoquinolin-4-yl)methyl)urea], the EC50 was 1200 nM. As to `COCCn1cc(C(C)N(C)C(=O)Nc2ccc(F)c(Cl)c2)c2ccccc2c1=O` (single isomer, unassigned) [Compound 191, 3-(3-Chloro-4-fluorophenyl)-1-(1-(2-(2-methoxyethyl)-1-oxo-1,2-dihydroisoquinolin-4-yl)ethyl)-1-methylurea], the EC50 turned out to be 360 nM.

Staying with this assay, now noted: read-out: DE-19bDNA EC50; HepDE19 assay, inhibition of formation of relaxed circular DNA (rcDNA), bDNA quantitation.
Take `CC(c1c[nH]c(=O)c2c(F)c(F)ccc12)N(C)C(=O)Nc1cc(Cl)cc(Cl)c1` (single isomer, unassigned) [Compound 448, 3-(3,5-Dichlorophenyl)-1-(1-(7,8-difluoro-1-oxo-1,2-dihydroisoquinolin-4-yl)ethyl)-1-methylurea]: the EC50 stood at 70 nM.

For the origin of these results see patent US20230045421A1 (priority 2018, published 2023).
